Source: patent publication EP4273147A1, “SUBSTITUTED SPIROLACTAMS, SALTS THEREOF AND THEIR USE AS HERBICIDALLY ACTIVE SUBSTANCES” (Bayer Aktiengesellschaft, priority 2022, dated 2023)

Tests used:
GLXMA [1] = assay: Post-emergence effects on crop plants (Table F4); type: in vivo, Glycine max; details: application rate 320 g/ha, crop plant GLXMA
Text: (§1) 2 to 3 weeks after sowing, the test plants were sprayed in the single-leaf stage.

ZEAMX [2] = assay: Post-emergence effects on crop plants (Table F1); type: in vivo, Zea mays; details: application rate 320 g/ha, crop plant ZEAMX
Text: as §1

ZEAMX [3] = assay: Pre-emergence effects on crop plants (Table D1); type: in vivo, Zea mays; details: crop plant; application rate 320 g/ha; visual grading after ca. 3 weeks
VIOTR [4] = assay: Herbicidal post-emergence action, section E (Table E10); type: in vivo, Viola tricolor; details: application rate 320 g/ha; assessed visually after ca. 3 weeks
Text: as §1

ORYZA [5] = assay: Post-emergence effects on crop plants (Table F3); type: in vivo, Oryza sativa; details: application rate 320 g/ha, crop plant ORYZA
Text: as §1

TRZAS [6] = assay: Post-emergence effects on crop plants (Table F2); type: in vivo, Triticum aestivum; details: application rate 320 g/ha, crop plant TRZAS
Text: as §1

BRSNW [7] = assay: Post-emergence effects on crop plants (Table F5); type: in vivo, Brassica napus; details: application rate 80 g/ha, crop plant BRSNW
Text: as §1

LOLRI [8] = assay: Herbicidal pre-emergence action (Table A3); type: in vivo, Lolium rigidum; details: visual grading after ca. 3 weeks
Outline: (§2)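 Seeds covered with soil after sowing in sandy loam; every pot carried one monocotyledonous and one dicotyledonous weed species as a double sowing.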

ECHCG [9] = assay: Herbicidal pre-emergence action (Table A2); type: in vivo, Echinochloa crus-galli; details: visual grading after ca. 3 weeks
Outline: as §2

VERPE [10] = assay: Herbicidal post-emergence action (Table B10); type: in vivo, Veronica persica
Outline: (§3)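 Greenhouse pot test in sandy loam; weeds sown, treated post-emergence at one-leaf stage 2–3 weeks after sowing. Activity rated visually about 3 weeks later versus untreated controls, 100% = plants dead, 0% = like controls.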

SETVI [11] = assay: Herbicidal pre-emergence action (Table A5); type: in vivo, Setaria viridis; details: visual grading after ca. 3 weeks
Outline: as §2

ORYZA [12] = assay: Pre-emergence effects on crop plants (Table D3); details: crop plant, visual grading after ca. 3 weeks
SETVI [13] = assay: Herbicidal post-emergence action, section E (Table E8); type: in vivo, Setaria viridis; details: application rate 80 g/ha; assessed visually after ca. 3 weeks
Text: as §1

SETVI [14] = assay: Herbicidal pre-emergence action, section C (Table C10); type: in vivo, Setaria viridis; details: visual grading after ca. 3 weeks
ALOMY [15] = assay: Herbicidal pre-emergence action (Table A9); type: in vivo, Alopecurus myosuroides; details: application rate 1280 g/ha; visual grading after ca. 3 weeks
Outline: as §2

ECHCG [16] = assay: Herbicidal pre-emergence action, section C (Table C6); type: in vivo, Echinochloa crus-galli; details: visual grading after ca. 3 weeks
BRSNW [17] = assay: Pre-emergence effects on crop plants (Table D5); type: in vivo, Brassica napus; details: crop plant, visual grading after ca. 3 weeks
VERPE [18] = assay: Herbicidal pre-emergence action (Table A11); type: in vivo, Veronica persica; details: application rate 1280 g/ha; visual grading after ca. 3 weeks
Outline: as §2

TRZAS [19] = assay: Pre-emergence effects on crop plants (Table D2); type: in vivo, Triticum aestivum; details: crop plant; application rate 320 g/ha; visual grading after ca. 3 weeks
ECHCG [20] = assay: Herbicidal post-emergence action, section E (Table E5); type: in vivo, Echinochloa crus-galli; details: application rate 320 g/ha; assessed visually after ca. 3 weeks
Text: as §1

POAAN [21] = assay: Herbicidal pre-emergence action (Table A7); type: in vivo, Poa annua; details: visual grading after ca. 3 weeks
Outline: as §2

ECHCG [22] = assay: Herbicidal post-emergence action (Table B3); type: in vivo, Echinochloa crus-galli; details: application rate 1280 g/ha; rated visually after about 3 weeks
Outline: as §3

ALOMY [23] = assay: Herbicidal post-emergence action (Table B2); type: in vivo, Alopecurus myosuroides; details: application rate 1280 g/ha; rated visually after about 3 weeks
Description: (§4) Seeds of mono- and dicotyledonous weed plants were placed in plastic pots in sandy loam soil (doubly sown with in each case one species of mono- or dicotyledonous weed plants per pot), covered with soil and cultivated in a greenhouse under controlled growth conditions. 2 to 3 weeks after sowing, the test plants were treated at the one-leaf stage. […] After the test plants had been kept in the greenhouse under optimum growth conditions for about 3 weeks, the activity of the preparations was rated visually in comparison to untreated controls. For example, 100% activity = the plants have died, 0% activity = like control plants.

STEME = assay: Herbicidal pre-emergence action (Table A6); type: in vivo, Stellaria media; details: application rate 320 g/ha; visual grading after ca. 3 weeks
Outline: as §2

DIGSA [24] = assay: Herbicidal pre-emergence action (Table A12); type: in vivo, Digitaria sanguinalis; details: application rate 320 g/ha; visual grading after ca. 3 weeks
Outline: as §2

POLCO = assay: Herbicidal pre-emergence action, section C (Table C9); type: in vivo, Polygonum convolvulus; details: application rate 320 g/ha; visual grading after ca. 3 weeks
GLXMA [25] = assay: Pre-emergence effects on crop plants (Table D4); type: in vivo, Glycine max; details: crop plant, visual grading after ca. 3 weeks
Description: Seeds of mono- and dicotyledonous weed plants and crop plants were sown, in plastic or organic planting pots, in sandy loam and covered with soil. The compounds according to the invention, formulated in the form of wettable powders (WP) or as emulsifiable concentrates (EC), were applied to the surface of the covering soil as aqueous suspension or emulsion, with the addition of 0.5% of an additive, at an application rate of 600 1 of water/ha (converted).
Following treatment, the pots were placed in a greenhouse and kept under optimum growth conditions for the test plants.

DIGSA [26] = assay: Herbicidal pre-emergence action, section C (Table C5); type: in vivo, Digitaria sanguinalis; details: visual grading after ca. 3 weeks
MATIN [27] = assay: Herbicidal pre-emergence action (Table A4); type: in vivo, Matricaria inodora; details: application rate 1280 g/ha; visual grading after ca. 3 weeks
Outline: as §2

VERPE [28] = assay: Herbicidal pre-emergence action, section C (Table C11); type: in vivo, Veronica persica; details: application rate 320 g/ha; visual grading after ca. 3 weeks
ALOMY [29] = assay: Herbicidal pre-emergence action, section C (Table C2); type: in vivo, Alopecurus myosuroides; details: application rate 320 g/ha; visual grading after ca. 3 weeks
Description: Seeds of mono- and dicotyledonous weed plants and crop plants were sown, in plastic or organic planting pots, in sandy loam and covered with soil. The compounds according to the invention, formulated in the form of wettable powders (WP) or as emulsifiable concentrates (EC), were applied to the surface of the covering soil as aqueous suspension or emulsion, with the addition of 0.5% of an additive, at an application rate of 600 1 of water/ha (converted). Following treatment, the pots were placed in a greenhouse and kept under optimum growth conditions for the test plants.

LOLRI [30] = assay: Herbicidal pre-emergence action, section C (Table C7); type: in vivo, Lolium rigidum; details: application rate 320 g/ha; visual grading after ca. 3 weeks
VERPE [31] = assay: Herbicidal post-emergence action, section E (Table E9); type: in vivo, Veronica persica; details: application rate 320 g/ha; assessed visually after ca. 3 weeks
Text: as §1

LOLRI [32] = assay: Herbicidal post-emergence action (Table B5); type: in vivo, Lolium rigidum; details: application rate 1280 g/ha; rated visually after about 3 weeks
Description: as §4

VIOTR [33] = assay: Herbicidal pre-emergence action, section C (Table C12); type: in vivo, Viola tricolor; details: application rate 80 g/ha; visual grading after ca. 3 weeks
MATIN [34] = assay: Herbicidal post-emergence action (Table B6); type: in vivo, Matricaria inodora; details: application rate 1280 g/ha; rated visually after about 3 weeks
Outline: as §3

POAAN [35] = assay: Herbicidal post-emergence action (Table B7); type: in vivo, Poa annua; details: application rate 1280 g/ha
Outline: as §3

Compound	post-emergence activity against GLXMA (GLXMA [1])	post-emergence activity against ZEAMX (ZEAMX [2])	pre-emergence activity against ZEAMX (ZEAMX [3])	post-emergence activity against VIOTR (VIOTR [4])	post-emergence activity against ORYZA (ORYZA [5])	post-emergence activity against TRZAS (TRZAS [6])	post-emergence activity against BRSNW (BRSNW [7])	pre-emergence activity against LOLRI (LOLRI [8]; application rate 1280 g/ha)	pre-emergence activity against ECHCG (ECHCG [9]; application rate 320 g/ha)	pre-emergence activity against SETVI (SETVI [11]; application rate 1280 g/ha)	pre-emergence activity against ORYZA (ORYZA [12]; application rate 320 g/ha)	pre-emergence activity against ALOMY (ALOMY [15])	pre-emergence activity against ECHCG (ECHCG [16]; application rate 320 g/ha)	pre-emergence activity against BRSNW (BRSNW [17]; application rate 320 g/ha)	pre-emergence activity against VERPE (VERPE [18])	pre-emergence activity against TRZAS (TRZAS [19])	post-emergence activity against ECHCG (ECHCG [22])	pre-emergence activity against SETVI (SETVI [11]; application rate 320 g/ha)	post-emergence activity against ALOMY (ALOMY [23])	pre-emergence activity against STEME (STEME)	also measured
O=C1N(Cc2cccc(F)c2Cl)CCCC12CCCN(Cc1cccc(F)c1Cl)C2=O (racemic) [I-047]	20%	10%	20%	80%	0%	20%	20%	90%	90%	100%	0%	100%	80%	20%	90%	20%					post-emergence activity against VERPE (VERPE [10]; application rate 1280 g/ha): 90%; post-emergence activity against SETVI (SETVI [13]): 80%; pre-emergence activity against SETVI (SETVI [14]; application rate 80 g/ha): 80%; post-emergence activity against ECHCG (ECHCG [20]): 80%; pre-emergence activity against POAAN (POAAN [21]; application rate 1280 g/ha): 100%
O=C1N(Cc2ccccc2Br)CCCC12CCCN(Cc1cccc(F)c1F)C2=O (racemic) [I-055]									100%								90%	90%	90%		pre-emergence activity against LOLRI (LOLRI [8]; application rate 320 g/ha): 100%; post-emergence activity against VERPE (VERPE [10]; application rate 320 g/ha): 90%
O=C1N(Cc2cc(F)ccc2Cl)CCCC12CCCN(Cc1cc(F)ccc1Cl)C2=O (racemic) [I-069]	20%	20%		90%	0%	0%	0%				20%		80%	0%	90%	0%		100%	100%	90%	pre-emergence activity against ECHCG (ECHCG [9]; application rate 1280 g/ha): 90%; pre-emergence activity against DIGSA (DIGSA [24]): 100%; pre-emergence activity against POLCO (POLCO): 80%; pre-emergence activity against SETVI (SETVI [14]; application rate 320 g/ha): 100%; pre-emergence activity against GLXMA (GLXMA [25]; application rate 80 g/ha): 0%; pre-emergence activity against DIGSA (DIGSA [26]; application rate 320 g/ha): 100%; pre-emergence activity against POAAN (POAAN [21]; application rate 320 g/ha): 100%
O=C1N(Cc2ccccc2Cl)CCC12CCCN(Cc1c(F)cccc1F)C2=O (racemic) [I-045]	0%	0%	0%	80%	0%	0%		100%		100%		90%					90%			90%	pre-emergence activity against MATIN (MATIN [27]): 90%; pre-emergence activity against VERPE (VERPE [28]): 80%; pre-emergence activity against ALOMY (ALOMY [29]): 100%; pre-emergence activity against LOLRI (LOLRI [30]): 90%; post-emergence activity against VERPE (VERPE [31]): 80%; post-emergence activity against LOLRI (LOLRI [32]): 90%; pre-emergence activity against DIGSA (DIGSA [24]): 90%; pre-emergence activity against VIOTR (VIOTR [33]): 90%; post-emergence activity against MATIN (MATIN [34]): 90%; pre-emergence activity against ORYZA (ORYZA [12]; application rate 80 g/ha): 0%; pre-emergence activity against SETVI (SETVI [14]; application rate 320 g/ha): 100%; pre-emergence activity against ECHCG (ECHCG [16]; application rate 80 g/ha): 90%; pre-emergence activity against BRSNW (BRSNW [17]; application rate 80 g/ha): 0%; post-emergence activity against POAAN (POAAN [35]): 90%; pre-emergence activity against GLXMA (GLXMA [25]; application rate 320 g/ha): 0%; pre-emergence activity against DIGSA (DIGSA [26]; application rate 80 g/ha): 80%; pre-emergence activity against POAAN (POAAN [21]; application rate 320 g/ha): 100%
